The IC50 is the concentration that inhibits the measured activity by half.

Molecules are shown by their SMILES.

Consider 3 compounds from patent US11992013B2, “Feral hog toxicant” (priority 2019, dated 2024).

In data set [1] the test system is adult hogs. Particulars: cited from earlier work.
The subject of data set [2] is feral hogs. In words: Vomiting after toxicant baits are consumed. It is filed as in vivo, Sus scrofa. As to conditions: preliminary results. The text has this: Another difficulty of using sodium nitrite as a toxicant is that feral hogs can sometimes vomit the baits. The acidic decomposition of sodium nitrite in gastric juices can lead to the release of noxious, gaseous by-products that can induce vomiting. This tendency can be counteracted by incorporating into the bait antiemetic compounds, antacid compounds, or both. Antacids include such compounds as sodium carbonate, sodium bicarbonate, calcium carbonate, magnesium hydroxide, magnesium carbonate, potassium carbonate, amines (e.g. from fish), and potassium bicarbonate. Antacids such as sodium carbonate also help maintain a higher pH level before the bait is consumed. Then after consumption the antacids can help neutralize gastric acid, both inhibiting the breakdown of sodium nitrite in vivo, and also helping to reduce vomiting. […] Anti-emetics can also be employed, for example taste-free ginger extracts containing gingerols. […] Gingerols have the same mechanism of action as drugs such as Zofran (ondansetron), which are prescribed in humans for the treatment of severe, chemotherapy-induced nausea. Other anti-emetics known in the art may also be used.

Data set [3] concerns methemoglobin reductase (MR). Nature of the data set: Inhibition of methemoglobin reductase (MR) by luteolin. The format is biochemical. As to conditions: assuming about 65 mL blood per kilogram body mass in the pig; no experimental data. The text has this: An optional embodiment enhances the effective of sodium nitrite by incorporating the flavonoid luteolin into a bait. Luteolin is found in botanical sources including celery, broccoli, green pepper, parsley, thyme, dandelion, perilla, chamomile, carrots, olive oil, peppermint, rosemary, oranges and other citrus, oregano, and certain palm seeds. The mechanism of sodium nitrite toxicity is to oxidize hemoglobin in the blood to methemoglobin, converting the iron atom from the ferrous form to the ferric form. Methemoglobin has a poor ability to transport oxygen to cells. Methemoglobin is naturally present in mammalian blood at 1-2% of total hemoglobin, a level that is ordinarily tempered by the enzyme methemoglobin reductase (MR). […] Because hogs have a poor ability to detoxify methemoglobin build-up, they are inherently more prone to developing high concentrations of methemoglobin upon exposure to sodium nitrite, which can quickly lead to death. In an optional embodiment, this physiology is further exploited by incorporating MR inhibitors into the bait, thus facilitating control of feral hogs while releasing less total nitrite into the environment. Luteolin is a highly-potent, commercially-available, naturally-occurring, tasteless MR inhibitor. Adding small amounts of luteolin to a nitrite-containing bait will reduce a hog's ability to detoxify methemoglobin. […]

The target of data set [4] is methemoglobin reductase (MR). Particulars: MR inhibitor; cited from earlier work.
For data set [5] the following is noted: neutral or acidic pH; cited from earlier work.

Regarding `O=NO` [sodium nitrite], the LD90 result in data set [1] is on record as “about 189 mg/kg”.
As for `O=C([O-])[O-].[Na+].[Na+]` [sodium carbonate], in data set [2], the “effect on vomiting after toxicant baits are consumed” value is “effective in reducing vomiting”.
With `O=c1cc(-c2ccc(O)c(O)c2)oc2cc(O)cc(O)c12` [luteolin], in data set [3], the “amount of luteolin needed for 50% inhibition of the MR enzyme” value was ~2 micrograms per kilogram body mass. In addition, the half-maximal inhibitory concentration (IC50) in data set [4] was ~110 nM. In addition, the water solubility result in data set [5] is recorded as “poorly soluble”.
